The target of this assay is T1, MurG (Cereibacter sphaeroides, UniProt Q3J4M2).
T1 construct: full-length murG in pET28b(+), N-terminal His tag cut with thrombin, E. coli BL21(DE3); Triton X-100 extraction; start encoded by primer MGRPLLL
T1 sequence (Q3J4M2 1-364): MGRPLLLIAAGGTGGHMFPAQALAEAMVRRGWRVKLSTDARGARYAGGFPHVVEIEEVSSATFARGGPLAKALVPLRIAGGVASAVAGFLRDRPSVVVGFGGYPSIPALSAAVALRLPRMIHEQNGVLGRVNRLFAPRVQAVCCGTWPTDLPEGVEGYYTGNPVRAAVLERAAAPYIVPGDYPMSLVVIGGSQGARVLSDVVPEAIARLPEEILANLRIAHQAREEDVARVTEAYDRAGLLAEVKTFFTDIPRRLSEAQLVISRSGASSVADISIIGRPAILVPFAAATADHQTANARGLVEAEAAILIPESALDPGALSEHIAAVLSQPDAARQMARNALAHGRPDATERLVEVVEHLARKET
Put plainly: liposome-pelleting assay, SDS-PAGE densitometry. It is filed as binding. The conditions noted are these: 6 uM MurG, 4 mM phospholipid, 0.5 uM BSA, 20 mM Tris pH 8.0, room temperature.

As for `CCCCCCCC/C=C\CCCCCCCC(=O)OC[C@H](COP(=O)(O)OCC(O)CO)OC(=O)CCCCCCC/C=C\CCCCCCCC` (mixture of isomers) [PGL, 1,2-di-(9Z-octadecenoyl)-sn-glycero-D-phospho-(1′-rac-glycerol)], the “% pelleted MurG” value (10 mol% PGL in PC liposomes (mixed membrane)) amounted to 92%.
For `CCCCCCCC/C=C\CCCCCCCC(=O)OC[C@H](COP(=O)(O)OCC(O)COP(=O)(O)OC[C@@H](COC(=O)CCCCCCC/C=C\CCCCCCCC)OC(=O)CCCCCCC/C=C\CCCCCCCC)OC(=O)CCCCCCC/C=C\CCCCCCCC` (some centres unmarked) [CL, 1,1′,2,2′-tetra-(9Z-octadecenoyl) cardiolipin], for the setting “10 mol% CL in PC liposomes (mixed membrane)”, the “% pelleted MurG” value worked out at 92%.
